This is an account of results in patent US5202319A, “Substituted 3-amino-2,3,4,5-tetrahydro-1-aryloxy-3-benzazepines” (Hoechst-Roussel Pharmaceuticals Inc., priority 1991, dated 1993).

One test deals with serotonin (5HT) uptake. Put plainly: 3H-Serotonin Uptake in Rat Whole Brain and Hypothalamic Synaptosomes. Type of test: biochemical. Particulars: 50 nM 3H-5HT, 37° C., 5 minutes, log-probit analysis, read-out: Inhibition of ^3 H-serotonin Uptake IC50. As for the experimental part:
A. Animals: Male CR Wistar rats (100-125 g).
3. […] This is used to dilute the specific activity of radiolabeled 5HT.
The final desired concentration of ^3 H-5HT in the assay is 50 nM. The dilution factor is 0.8.
Male Wistar rats are decapitated and the brain rapidly removed. […] Homogenization should be done with 4-5 up and down strokes at medium speeds to minimize synaptosome lysis. […] The supernatant (S1) is decanted and is used for uptake experiments.
Tubes are incubated at 37° C. under a 95% O2 /5% CO2 atmosphere for 5 minutes. For each assay, 3 tubes are incubated with 20 μl of vehicle at 0° C. in an ice bath. After incubation all tubes are immediately centrifuged at 4000 g for 10 minutes. The supernatant fluid is aspirated and the pellets dissolved by adding 1 ml of solubilizer (Triton X-100+50% EtOH, 1:4 v/v). […] Active uptake is the difference between cpm at 37° C. and 0° C. […] IC50 values are derived from log-probit analysis.

For test [1] the following is noted: in vivo; cited from earlier work.
Another test deals with 5HT uptake sites. Particulars: in vitro; cited from earlier work.
The subject of a further test is [^3 H]-5HT transport. The following applies: CNS tissue; cited from earlier work.
The test system of a further test is 5HT uptake. Particulars: cited from earlier work.

Counter-ions that a name gives are not always drawn.

Turning to `NN1CCc2ccccc2C(Oc2ccc(C(F)(F)F)cc2)C1` (stereo not drawn) [3-Amino-2,3,4,5-tetrahydro-1-(4-trifluoromethylphenoxy)-3-benzazepine maleate], the IC50 (in general, the concentration that inhibits the measured activity by half) with serotonin (5HT) uptake was 9.36 µM.

Consider `COc1cc2c(cc1OC)C(Oc1ccccc1)CN(N)CC2` (stereo not drawn) [3-Amino-7,8-dimethoxy-1-phenoxy-2,3,4,5-tetrahydro-3-benzazepine maleate], for which the IC50 in the test on serotonin (5HT) uptake came to 2.13 µM.

Turning to `O=c1n(CCCN2CCN(c3cccc(Cl)c3)CC2)nc2ccccn12` [Trazodone], the clinical effectiveness result in test [1] is given as “clinically effective antidepressants”.

`CN(C)CCCN1c2ccccc2CCc2ccccc21` [[^3 H]-imipramine]: the “[^3 H]-imipramine binding” value with 5HT uptake sites is recorded as “labels 5HT uptake sites”.

Consider `C[C@@H]1O[C@@H](O[C@H]2C[C@@H](O)[C@]3(CO)[C@H]4[C@H](O)C[C@]5(C)[C@@H](C6=CC(=O)OC6)CC[C@]5(O)[C@@H]4CC[C@]3(O)C2)[C@H](O)[C@H](O)[C@H]1O` [ouabain], for which the “inhibition of [^3 H]-5HT transport” value in test [^3 H]-5HT transport is reported as “inhibited”.

For the molecule `CN(C)C/C=C(/c1ccc(Br)cc1)c1cccnc1` [zimelidine], in the test on 5HT uptake, the “effects on 5HT uptake” value is “fairly selective effects on 5HT uptake”.
